Assay results taken from patent US20110092505A1, “ORGANIC COMPOUNDS” (priority 2008, published 2011).
Where two headings read alike, the source gives them in different places.

Experiments:
protein kinase D1 (PKD1) = target: T1, protein kinase D1 (PKD1) (Homo sapiens, UniProt Q15139); assay: PKD1 TR-FRET (LANCE) kinase assay; type: biochemical; details: full length wild-type enzyme, 20 μM ATP, syntide-2 substrate; read-out: Inhibitory Activity PKD1
T1 construct: This assay is performed with full length wild-type enzyme that is expressed and purified from Sf9 insect cells; made in house; host or cells: Sf9 insect cells
T1 sequence (Q15139 1-912): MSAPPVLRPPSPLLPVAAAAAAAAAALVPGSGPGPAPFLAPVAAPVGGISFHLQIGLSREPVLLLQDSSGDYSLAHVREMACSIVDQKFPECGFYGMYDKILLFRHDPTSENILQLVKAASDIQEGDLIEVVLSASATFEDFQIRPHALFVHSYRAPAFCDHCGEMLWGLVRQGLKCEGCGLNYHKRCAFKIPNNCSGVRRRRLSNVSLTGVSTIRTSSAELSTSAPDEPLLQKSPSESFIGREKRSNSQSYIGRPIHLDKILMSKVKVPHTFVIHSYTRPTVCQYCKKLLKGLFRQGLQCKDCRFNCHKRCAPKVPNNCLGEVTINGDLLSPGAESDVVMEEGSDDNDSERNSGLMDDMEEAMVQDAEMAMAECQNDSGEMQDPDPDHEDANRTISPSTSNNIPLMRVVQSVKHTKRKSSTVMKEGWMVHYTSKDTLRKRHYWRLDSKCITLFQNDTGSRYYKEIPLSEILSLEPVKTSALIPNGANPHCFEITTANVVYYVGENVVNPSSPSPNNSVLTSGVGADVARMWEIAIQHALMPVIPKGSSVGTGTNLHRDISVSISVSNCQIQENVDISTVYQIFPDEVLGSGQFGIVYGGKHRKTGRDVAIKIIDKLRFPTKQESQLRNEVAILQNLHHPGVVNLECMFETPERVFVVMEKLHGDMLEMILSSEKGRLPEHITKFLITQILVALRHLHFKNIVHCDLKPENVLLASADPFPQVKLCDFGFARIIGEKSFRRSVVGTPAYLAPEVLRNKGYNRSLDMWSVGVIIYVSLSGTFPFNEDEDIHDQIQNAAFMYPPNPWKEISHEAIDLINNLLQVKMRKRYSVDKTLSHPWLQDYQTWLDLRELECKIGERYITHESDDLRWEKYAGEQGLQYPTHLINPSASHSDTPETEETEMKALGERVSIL
Text: (§1) The assay to measure protein kinase D1 (PKD1) activity is a time-resolved fluorescence resonance transfer (TR-FRET) assay using PerkinElmer's LANCE™ technology. In this case, a biotinylated syntide-2 peptide is used as the substrate in this reaction. Phosphorylation of the syntide-2 substrate is detected by a specific antibody that recognizes the phosphorylated peptide. A second fluorophore, APC, is conjugated to streptavidin that binds the biotinylated syntide-2 peptide. […] Therefore, when the europium labeled secondary antibody binds on the phosphorylated peptide, it is brought into close contact with the APC and excites this fluorophore.
(§2) This assay is performed with full length wild-type enzyme that is expressed and purified from Sf9 insect cells. The reaction buffer consists of 35 mM Tris-HCl pH7.5, 5 mM MgCl2, 0.02% Tween-20, 20 μM ATP, 1 mM DTT and 0.2 μg/mL PKD1 enzyme. The enzyme reaction is initiated by the addition of 2 μM syntide-2 peptide substrate and the reaction carried out for 50 minutes at room temperature. The reaction is stopped by a stop/detection Buffer consisting of 50 mM EDTA, 0.18 mg/mL rabbit polyclonal anti-phospho Syntide-2 antibody, 0.5 nM europium labeled anti-rabbit IgG and 10 nM streptavidin conjugated APC. […] IC50 values are calculated using an Activity Base (IDBS) software program.

protein kinase D2 (PKD2) = target: T2, protein kinase D2 (PKD2) (Homo sapiens, UniProt Q9BZL6); assay: PKD2 TR-FRET (LANCE) kinase assay; type: biochemical; details: full length wild-type enzyme, 20 μM ATP, syntide-2 substrate; read-out: Inhibitory Activity PKD2
T2 construct: This assay is performed with full length wild-type enzyme purchase from Invitrogen; purchased Invitrogen
T2 sequence (Q9BZL6 1-878): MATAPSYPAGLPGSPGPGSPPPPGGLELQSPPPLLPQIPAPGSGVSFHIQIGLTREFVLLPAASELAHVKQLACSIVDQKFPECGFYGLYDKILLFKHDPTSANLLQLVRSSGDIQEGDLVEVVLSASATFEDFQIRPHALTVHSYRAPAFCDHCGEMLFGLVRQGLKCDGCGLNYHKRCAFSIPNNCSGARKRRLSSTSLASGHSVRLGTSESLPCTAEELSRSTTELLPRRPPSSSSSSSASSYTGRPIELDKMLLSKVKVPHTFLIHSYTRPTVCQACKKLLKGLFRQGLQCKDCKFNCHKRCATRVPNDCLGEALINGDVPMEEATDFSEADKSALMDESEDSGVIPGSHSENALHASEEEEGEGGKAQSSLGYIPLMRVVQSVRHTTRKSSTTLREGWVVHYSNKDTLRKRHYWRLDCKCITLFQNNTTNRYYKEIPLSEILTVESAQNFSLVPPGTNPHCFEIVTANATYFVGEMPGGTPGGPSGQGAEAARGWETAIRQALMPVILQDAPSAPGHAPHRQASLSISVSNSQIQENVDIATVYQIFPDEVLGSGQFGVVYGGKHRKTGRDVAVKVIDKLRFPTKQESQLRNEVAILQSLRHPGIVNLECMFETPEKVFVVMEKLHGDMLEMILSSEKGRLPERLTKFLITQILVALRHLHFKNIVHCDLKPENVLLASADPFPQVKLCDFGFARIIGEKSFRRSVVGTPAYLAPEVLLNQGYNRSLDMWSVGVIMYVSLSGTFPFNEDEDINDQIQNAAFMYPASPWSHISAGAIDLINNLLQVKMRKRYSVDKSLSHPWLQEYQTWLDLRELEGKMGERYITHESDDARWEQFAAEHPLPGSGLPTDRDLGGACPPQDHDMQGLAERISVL
Text: as §1, with “D2 (PKD2)” for “D1 (PKD1)”
as §2, with “purchase” for “that is expressed and purified”, “Invitrogen.” for “Sf9 insect cells.”, “PKD2” for “PKD1”, “APC. After a one hour incubation with the stop/detection buffer, the reaction is read on an Envision 2100 Reader using a LANCE™ Eu/APC dual protocol.” for “APC.”

[1] = system: agonist-dependent nuclear export of HDAC5; assay: HDAC5 nuclear export assay (GFP-HDAC5, Cellomics imaging); type: cell-based; details: Rattus norvegicus, Ventricular myocyte, 2 h, read-out: Inhibitory Activity HDAC
Description: Compounds are evaluated in the HDAC5 nuclear export assay, a 384-well plate-based assay that enables high throughput screening (HTS) to identify small molecules that block agonist-dependent nuclear export of HDAC5. […] Neonatal rat ventricular myocytes (NRVMs) are infected with GFP-HDAC5 encoding virus and plated on gelatin-coated 384-well dishes. […] Following two hours of stimulation, cells are fixed and GFP-HDAC5 localization quantified using the Cellomics system, which provides a read-out of relative fluorescence intensity in the cytoplasmic versus nuclear compartment.

protein kinase D3 (PKD3) = target: T3, protein kinase D3 (PKD3) (Homo sapiens, UniProt O94806); assay: PKD3 TR-FRET (LANCE) kinase assay; type: biochemical; details: full length wild-type enzyme, 20 μM ATP, syntide-2 substrate; read-out: Inhibitory Activity PKD3
T3 construct: This assay is performed with full length wild-type enzyme that is purchased from Invitrogen; purchased Invitrogen
T3 sequence (O94806 1-890): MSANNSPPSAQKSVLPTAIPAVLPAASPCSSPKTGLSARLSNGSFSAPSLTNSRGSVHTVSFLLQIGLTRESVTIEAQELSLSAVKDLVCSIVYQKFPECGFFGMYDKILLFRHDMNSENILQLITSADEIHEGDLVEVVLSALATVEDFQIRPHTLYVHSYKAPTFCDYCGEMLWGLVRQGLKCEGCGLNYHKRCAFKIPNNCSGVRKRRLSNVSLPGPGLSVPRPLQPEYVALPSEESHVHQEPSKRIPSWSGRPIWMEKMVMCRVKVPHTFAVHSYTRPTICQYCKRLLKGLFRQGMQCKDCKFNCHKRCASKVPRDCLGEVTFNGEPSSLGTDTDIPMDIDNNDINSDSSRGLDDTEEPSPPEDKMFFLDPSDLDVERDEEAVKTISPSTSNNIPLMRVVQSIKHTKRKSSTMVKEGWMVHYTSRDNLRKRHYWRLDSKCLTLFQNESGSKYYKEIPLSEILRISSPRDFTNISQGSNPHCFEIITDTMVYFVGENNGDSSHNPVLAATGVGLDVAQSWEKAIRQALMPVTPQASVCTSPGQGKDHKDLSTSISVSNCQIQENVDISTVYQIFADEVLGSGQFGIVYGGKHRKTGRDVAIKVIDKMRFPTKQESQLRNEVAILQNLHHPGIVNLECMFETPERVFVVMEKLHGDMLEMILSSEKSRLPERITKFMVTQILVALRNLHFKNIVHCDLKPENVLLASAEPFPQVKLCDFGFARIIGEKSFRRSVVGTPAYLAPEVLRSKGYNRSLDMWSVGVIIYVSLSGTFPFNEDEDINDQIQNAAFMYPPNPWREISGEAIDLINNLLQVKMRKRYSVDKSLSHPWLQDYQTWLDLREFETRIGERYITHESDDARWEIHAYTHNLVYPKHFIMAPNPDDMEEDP
Text: as §1, with “D3 (PKD3)” for “D1 (PKD1)”
as §2, with “purchased” for “expressed and purified”, “Invitrogen.” for “Sf9 insect cells.”, “PKD3” for “PKD1”, “buffer” for “Buffer”, “APC. After a one hour incubation with the stop/detection buffer, the reaction is read on an Envision 2100 Reader using a LANCE™ Eu/APC dual protocol.” for “APC.”

SMILES	IC50 (protein kinase D1 (PKD1))	IC50 (protein kinase D2 (PKD2))	IC50 ([1]; neonatal rat ventricular myocytes, PGF2α stimulation, two hours)	IC50 [1]	IC50 (protein kinase D3 (PKD3))
Cn1ccc(Nc2cc(-c3cc(C#N)cc(N4CCNCC4)n3)ccn2)n1 [2′-(1-Methyl-1H-pyrazol-3-ylamino)-6-piperazin-1-yl-[2,4′]bipyridinyl-4-carbonitrile]	8 nM	76 nM	> 1000 nM		
C[C@@H]1CN(c2cc(C(N)=O)cc(-c3ccnc(NC4CCCCC4)c3)n2)CCN1 [2′-Cyclohexylamino-6-((R)-3-methylpiperazin-1-yl)-[2,4′]bipyridinyl-4-carboxylic acid amide]	6 nM	60 nM		679 nM	
CC(C)Nc1cc(-c2cc(-c3cn[nH]c3)cc(N3CCNCC3)n2)ccn1 [iso-Propyl-[6-piperazin-1-yl-4-(1H-pyrazol-4-yl)-[2,4′]bipyridinyl-2′-yl]-amine]		3 nM		92 nM	< 1 nM
